Measured values published in paper PMC6602942, “Vertebrates originally possess four functional subtypes of G protein-coupled melatonin receptor” (Scientific Reports, 2019).
“And” between values parts separate entries of the source, which are not always exact repeats. Equal values may be shown once. Read-outs that look alike come from different tables or passages of the source.

Columns and labels:
medaka MTNR1a [1] = target: T1, medaka MTNR1a (Oryzias latipes, UniProt H2LVT7); test: cAMP-responsive (CRE-luc) reporter gene assay, agonist mode; format: cell-based; conditions: for RAA (%) MTNR1a (relative agonistic activity): maximal activity as percentage of that of melatonin; for agonistic activity in medaka MTNR1a: reporter assay without melatonin
Excerpt: (§1) Expression vectors for medaka mtnr genes, (pcDNA-OlMTNR1a, pcDNA-OlMTNR1b, pcDNA-OlMTNR1c and pcDNA-OlMTNR1a-like) were constructed by PCR amplification of the entire protein coding region, using primers which introduced in-frame Kozak sequence[33] at the 5′ end. A cyclic adenosine monophosphate (cAMP)-regulated reporter vector containing the luciferase gene under the control of a cAMP response element upstream of the TATA-like promoter region from the herpes simplex virus thymidine kinase promoter, named pCRE-luc, originated from the Pathway Profiling Luciferase System (Clontech). Hepa-E1 cells, i.e. epithelial-like Nile tilapia hepatocytes, were obtained from the Institute of Physical and Chemical Research (RIKEN) cell bank (Tsukuba, Japan). For MTNR1a, MTNR1b and MTNR1d, stable transfections were performed as described below. Hepa-E1 cells were seeded in 9 cm dishes prior to transfection. Both plasmids, pCRE-luc as well as expression vectors for medaka mtnrs were linearized by […] and transfected with X-tremeGENE 9 (Roche) according to the manufacturer’s instructions. Stably transfected cells were selected with G418. After selection, each colony was collected by pipetting. Sensitivity for cAMP in each clone was tested by forskolin treatment after seeding into 96-well plates with E-RDF medium (Kyokuto, Tokyo, Japan) and supplemented with 5% dextran-charcoal treated fetal bovine serum. After 24 h the cells were collected, and cellular luciferase activities were measured by luminescence assay with the Steady-Glo Assay System Kit (Promega) according to the manufacturer’s instructions. Forskolin-sensitive cell lines derived from co-transfection of pCRE-luc and pcDNA3.1(+) were developed as control lines and named null-CRE-luc. Forskolin-sensitive cell lines derived from co-transfection of pCRE-luc and each pcDNA-OlMTNR1 were selected for by sensitivity for melatonin.
(§2) For MTNR1c, transient transfection was performed as outlined below. The MTNR1c experiment was performed using Hepa-E1 cells in 9 cm dishes, which were transiently transfected by pcDNA-OlMTNR1c (500 ng) and pCRE-luc (5000 ng) by TransIT-X2 Dynamic Delivery System (Mirus) and incubated 24 h before seeding, following the manufacturer’s instructions. Cells derived from a chosen clone or MRNR1c-tranfected cells were seeded at 10^4 cells per well in 96-well luminometer plates. Then, cells were treated with test chemicals in triplicate at four-fold serial dilutions in the presence or absence of melatonin with 6.25 × 10^−7 M forskolin. For testing the antagonistic effect, reagents were mixed with melatonin at 90% effective concentration (EC90). Negative control wells were dosed with media plus 0.1% ethanol. Positive control wells were dosed with 1 μM melatonin. After 24 h, luciferase activities were measured as described above. Concentration-response curves were fitted and the EC50 or IC50 were calculated using sigmoidal fit in GraphPad Prism5. The relative agonistic activity (RAA) of each reagent was expressed as a percentage of the maximal activity for the reporter induction to that of melatonin. The antagonistic index (AI) of each reagent was expressed as a percentage of the maximal inhibition of the reagent. Maximal inhibition was calculated as the quotient of the subtraction of the luminescence for melatonin from the maximal luminescence for the reagent divided by the maximal inhibition of melatonin. When the reagent inhibits the transactivity to the same level of that of the vehicle control (forskolin), the AI equals 100%.

[2] = target: T2, medaka MTNR1a-like (MTNR1d) (Oryzias latipes, UniProt A0A3B3HMP3); test: as above; format: cell-based; conditions: for Emax: read-out: RAA (%) MTNR1a-like (relative agonistic activity); for agonistic activity in medaka MTNR1d: reporter assay without melatonin
Excerpt: as §1, §2

medaka MTNR1b [3] = target: T3, medaka MTNR1b (Oryzias latipes, UniProt A0ACM8R453); test: as above; format: cell-based; conditions: for RAA (%) MTNR1b (relative agonistic activity): maximal activity as percentage of that of melatonin, Hepa-E1 cells, forskolin, ND: not detected
T3 sequence (A0ACM8R453 1-364): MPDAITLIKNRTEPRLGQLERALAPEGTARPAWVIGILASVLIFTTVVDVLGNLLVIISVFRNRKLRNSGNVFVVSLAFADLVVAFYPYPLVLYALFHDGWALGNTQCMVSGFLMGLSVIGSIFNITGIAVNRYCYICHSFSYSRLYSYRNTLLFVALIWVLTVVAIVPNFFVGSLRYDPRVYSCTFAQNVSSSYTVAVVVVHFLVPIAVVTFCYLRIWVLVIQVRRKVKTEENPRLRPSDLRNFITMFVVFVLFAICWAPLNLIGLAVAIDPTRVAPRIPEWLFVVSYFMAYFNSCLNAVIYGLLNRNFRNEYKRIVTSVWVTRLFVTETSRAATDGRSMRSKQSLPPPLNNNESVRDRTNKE
Excerpt: as §1, §2

medaka MTNR1c [4] = target: T4, medaka MTNR1c (Oryzias latipes, UniProt A0A0D6A8H7); test: as above; format: cell-based; conditions: for Emax / RAA (%) MTNR1c (relative agonistic activity): maximal activity as percentage of that of melatonin, Hepa-E1 cells, forskolin, ND: not detected; for Emax: read-out: RAA (%) MTNR1c (relative agonistic activity)
Excerpt: as §1, §2

medaka MTNR1b [5] = target: T3, medaka MTNR1b; test: cAMP-responsive (CRE-luc) reporter gene assay, antagonist mode with EC90 melatonin; format: cell-based; conditions: for AI (%) MTNR1b (antagonistic index): maximal inhibition of melatonin (EC90) effect, 100% = forskolin level, ND: not detected
Excerpt: as §1
(§3) For MTNR1c, transient transfection was performed as outlined below. […] After 24 h, luciferase activities were measured as described above. Concentration-response curves were fitted and the EC50 or IC50 were calculated using sigmoidal fit in GraphPad Prism5. The relative agonistic activity (RAA) of each reagent was expressed as a percentage of the maximal activity for the reporter induction to that of melatonin. The antagonistic index (AI) of each reagent was expressed as a percentage of the maximal inhibition of the reagent. Maximal inhibition was calculated as the quotient of the subtraction of the luminescence for melatonin from the maximal luminescence for the reagent divided by the maximal inhibition of melatonin. […]

medaka MTNR1c [6] = target: T4, medaka MTNR1c; test: as above; format: cell-based; conditions: maximal inhibition of melatonin (EC90) effect; 100% = forskolin level; ND: not detected
Excerpt: as §1, §3

medaka MTNR1a [7] = target: T1, medaka MTNR1a; conditions: maximal inhibition of melatonin (EC90) effect; 100% = forskolin level; ND: not detected
Protocol: (§4) Hepa-E1 cells were seeded in 9 cm dishes prior to transfection. Both plasmids, pCRE-luc as well as expression vectors for medaka mtnrs were linearized by PCR and transfected with X-tremeGENE 9 (Roche) according to the manufacturer’s instructions. Stably transfected cells were selected with G418. After selection, each colony was collected by pipetting. Sensitivity for cAMP in each clone was tested by forskolin treatment after seeding into 96-well plates with E-RDF medium (Kyokuto, Tokyo, Japan) and supplemented with 5% dextran-charcoal treated fetal bovine serum. After 24 h the cells were collected, and cellular luciferase activities were measured by luminescence assay with the Steady-Glo Assay System Kit (Promega) according to the manufacturer’s instructions. […]
(§5) Cells derived from a chosen clone or MRNR1c-tranfected cells were seeded at 10^4 cells per well in 96-well luminometer plates. […] After 24 h, luciferase activities were measured as described above. Concentration-response curves were fitted and the EC50 or IC50 were calculated using sigmoidal fit in GraphPad Prism5. […] The antagonistic index (AI) of each reagent was expressed as a percentage of the maximal inhibition of the reagent. Maximal inhibition was calculated as the quotient of the subtraction of the luminescence for melatonin from the maximal luminescence for the reagent divided by the maximal inhibition of melatonin. […]

[8] = target: T2, medaka MTNR1a-like (MTNR1d); conditions: maximal inhibition of melatonin (EC90) effect; 100% = forskolin level; ND: not detected
Protocol: as §4, §5

[9] = stably transfected Hepa-E1 cells, 6.25 × 10^−7 M forskolin, 24 h, NC: not calculable (low activity, curve did not reach maximum), read-out: Potency (M) MTNR1a
[10] = maximal activity as percentage of that of melatonin, Hepa-E1 cells, forskolin, 24 h, ND: not detected
[11] = stably transfected Hepa-E1 cells, 6.25 × 10^−7 M forskolin, 24 h, NC: not calculable (low activity, curve did not reach maximum), read-out: Potency (M) MTNR1a-like
[12] = 24 h, listed as 2-Iodomelatonin

T4 sequence (A0A0D6A8H7 entry or part of it): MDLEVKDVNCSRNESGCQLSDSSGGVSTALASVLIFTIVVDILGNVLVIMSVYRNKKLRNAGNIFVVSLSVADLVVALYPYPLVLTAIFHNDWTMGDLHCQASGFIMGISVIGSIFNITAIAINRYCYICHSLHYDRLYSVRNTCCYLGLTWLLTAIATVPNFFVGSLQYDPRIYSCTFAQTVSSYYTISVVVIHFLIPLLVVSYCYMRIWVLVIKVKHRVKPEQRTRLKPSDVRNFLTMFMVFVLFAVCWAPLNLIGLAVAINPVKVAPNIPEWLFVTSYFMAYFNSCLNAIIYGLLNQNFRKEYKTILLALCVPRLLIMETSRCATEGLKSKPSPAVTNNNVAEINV
T1 sequence (H2LVT7 1-347): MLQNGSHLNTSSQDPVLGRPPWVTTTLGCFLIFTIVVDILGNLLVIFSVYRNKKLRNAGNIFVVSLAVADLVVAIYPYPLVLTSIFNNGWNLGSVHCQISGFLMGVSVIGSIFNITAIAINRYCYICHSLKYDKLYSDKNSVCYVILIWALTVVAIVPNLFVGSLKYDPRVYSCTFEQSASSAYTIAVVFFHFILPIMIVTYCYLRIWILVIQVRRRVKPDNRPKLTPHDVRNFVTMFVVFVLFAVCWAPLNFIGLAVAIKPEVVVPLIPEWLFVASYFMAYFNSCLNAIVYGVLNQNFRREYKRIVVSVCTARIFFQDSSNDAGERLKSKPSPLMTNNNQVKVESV
T2 sequence (A0A3B3HMP3 1-354): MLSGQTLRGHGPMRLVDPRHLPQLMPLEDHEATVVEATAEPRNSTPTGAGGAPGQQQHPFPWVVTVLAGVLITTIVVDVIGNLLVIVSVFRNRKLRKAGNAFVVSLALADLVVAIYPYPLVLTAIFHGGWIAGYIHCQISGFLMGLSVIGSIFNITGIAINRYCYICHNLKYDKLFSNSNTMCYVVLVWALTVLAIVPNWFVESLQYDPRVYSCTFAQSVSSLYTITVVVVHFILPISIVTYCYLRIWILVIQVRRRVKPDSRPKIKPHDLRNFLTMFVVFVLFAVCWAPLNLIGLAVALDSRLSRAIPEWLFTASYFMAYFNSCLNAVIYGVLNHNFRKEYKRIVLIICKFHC

COc1ccc2[nH]cc(CCNC(C)=O)c2c1 [Melatonin, N-acetyl-5-methoxytryptamine]
EC50 (medaka MTNR1a [1]): 4.8e-10 M | Emax (medaka MTNR1a [1]; 24 h, read-out: RAA (%) MTNR1a (relative agonistic activity), maximal activity as percentage of that of melatonin, Hepa-E1 cells, forskolin, 24 h, ND: not detected): 100 ± 3.8% | EC50 [2]: 2.2e-08 M | Emax ([2]; 24 h): 100 ± 2.9% | EC50 (medaka MTNR1b [3]): 1.9e-09 M | Emax (medaka MTNR1b [3]; 24 h, read-out: RAA (%) MTNR1b (relative agonistic activity)): 100 ± 4.4% | EC50 (medaka MTNR1c [4]): 6.2e-11 M | Emax (medaka MTNR1c [4]; 24 h, 24 h): 100 ± 1.8% | potency for melatonin of MTNR1c compared with MTNR1d/MTNR1a-like (medaka MTNR1c [4]; ratio of potencies between subtypes): more than three hundred-fold

COc1ccc2[nH]c(I)c(CCNC(C)=O)c2c1 [2-Iodo melatonin, 2-Iodomelatonin]
RAA (%) MTNR1a (relative agonistic activity) (medaka MTNR1a [1]; Hepa-E1 cells, forskolin, 24 h, ND: not detected): 95.8 ± 6.9% | RAA (%) MTNR1a (relative agonistic activity) (medaka MTNR1a [1]; Hepa-E1 cells, forskolin, 24 h, ND: not detected, listed as 2-Iodomelatonin): less than 100% | EC50 (medaka MTNR1a [1]; [9]): 2.7e-11 M | RAA (%) MTNR1a-like (relative agonistic activity) [2, 10]: 69.3 ± 6.8% | RAA (%) MTNR1a-like (relative agonistic activity) ([2]; maximal activity as percentage of that of melatonin, Hepa-E1 cells, forskolin, 24 h, ND: not detected, listed as 2-Iodomelatonin): 69.3% | EC50 [2, 11]: 4e-10 M | RAA (%) MTNR1b (relative agonistic activity) (medaka MTNR1b [3]; 24 h): 101.4 ± 2.8% | RAA (%) MTNR1b (relative agonistic activity) (medaka MTNR1b [3]; [12]): equivalent to that of melatonin | EC50 (medaka MTNR1b [3]; stably transfected Hepa-E1 cells, 6.25 × 10^−7 M forskolin, 24 h, NC: not calculable (low activity, curve did not reach maximum), read-out: Potency (M) MTNR1b): 3.9e-11 M | RAA (%) MTNR1c (relative agonistic activity) (medaka MTNR1c [4]; 24 h): 111.8 ± 3.2% | RAA (%) MTNR1c (relative agonistic activity) (medaka MTNR1c [4]; [12]): 112% | EC50 (medaka MTNR1c [4]; transiently transfected Hepa-E1 cells, 6.25 × 10^−7 M forskolin, 24 h, NC: not calculable (low activity, curve did not reach maximum), read-out: Potency (M) MTNR1c): 1.3e-11 M

CCC(=O)NC1Cc2ccccc2C(c2ccccc2)C1 (stereo not shown) [4P-PDOT]
agonistic activity in medaka MTNR1a (medaka MTNR1a [1]): exhibited agonistic activity | EC50 (medaka MTNR1a [1]; [9]): 4.7e-09 M | RAA (%) MTNR1a-like (relative agonistic activity) [2, 10]: 68.7% and 68.7 ± 6.4% | agonistic activity in medaka MTNR1d [2]: exhibited agonistic activity | EC50 [2, 11]: 1.2e-07 M | agonistic effect on MTNR1c (medaka MTNR1c [4]; reporter assay without melatonin): no agonistic effects | AI (%) MTNR1b (antagonistic index) (medaka MTNR1b [5]): 68.3% and 68.3 ± 8.0% | IC50 (medaka MTNR1b [5]; with EC90 melatonin and forskolin, Hepa-E1 cells, 24 h, NC: not calculable, read-out: Potency (M) MTNR1b, antagonist): 1.9e-07 M

CC(=O)NCCc1c(Cc2ccccc2)[nH]c2ccccc12 [Luzindole]
RAA (%) MTNR1a (relative agonistic activity) (medaka MTNR1a [1]; Hepa-E1 cells, forskolin, 24 h, ND: not detected, 1440 min): 68.2 ± 3.8% | RAA (%) MTNR1a (relative agonistic activity) (medaka MTNR1a [1]; Hepa-E1 cells, forskolin, 24 h, ND: not detected, listed as luzindole, 1440 min): less than 100% | agonistic activity in medaka MTNR1a (medaka MTNR1a [1]): exhibited agonistic activity | EC50 (medaka MTNR1a [1]; [9]): 3.3e-07 M | EC50 ([2]; MTNR1d (MTNR1a-like) transfected Hepa-E1 cells, cAMP-responsive reporter, read-out: EC50 MTNR1d): > 1e-06 M | Emax [2, 10]: 83.1% | agonistic activity in medaka MTNR1d [2]: exhibited agonistic activity | Emax (medaka MTNR1c [4]; 24 h, 24 h): 118% | EC50 (medaka MTNR1c [4]; MTNR1c-transfected Hepa-E1 cells, cAMP-responsive reporter, read-out: EC50 MTNR1c): > 1e-06 M | RAA (%) MTNR1c (relative agonistic activity) (medaka MTNR1c [4]; 24 h, 1440 min): 117.6 ± 11.5% | AI (%) MTNR1b (antagonistic index) (medaka MTNR1b [5]): did not exhibit inhibition | AI (%) MTNR1c (antagonistic index) (medaka MTNR1c [6]): did not exhibit inhibition | AI (%) MTNR1a (antagonistic index) (medaka MTNR1a [7]): did not exhibit inhibition | AI (%) MTNR1a-like (antagonistic index) [8]: did not exhibit inhibition
